According to patent publication US11370794B2, “Toll-like receptor antagonist compounds and methods of use” (Dynavax Technologies Corporation, priority 2016, dated 2022):

What was measured:
TLR-2 = molecular target: T1, TLR-2 (Homo sapiens, UniProt O60603); experiment: Receptor specificity in primary human leukocytes: TLR-2; type: cell-based
T1 construct: related toll-like receptor family members and other nucleic acid intracellular signaling receptors in primary human leukocytes; endogenous in cells; host or cells: primary human leukocytes
Protocol: (§1) Example B5—Receptor Specificity
(§2) Representative compounds were tested for antagonist activity against related toll-like receptor family members and other nucleic acid intracellular signaling receptors in primary human leukocytes. The compounds were Compound Nos. 5 and 9, and they were tested for their ability to inhibit human RIG-I, TLR-2, TLR-4, and TLR-5. With one exception, neither compound was able to inhibit these receptors greater than 50% at 10 μM.

TLR-4 = molecular target: T2, TLR-4 (Homo sapiens, UniProt O00206+Q9Y6Y9); experiment: Receptor specificity in primary human leukocytes: TLR-4; type: cell-based
T2 construct: related toll-like receptor family members and other nucleic acid intracellular signaling receptors in primary human leukocytes; endogenous in cells; host or cells: primary human leukocytes
Protocol: as §1, §2

mouse TLR9 = molecular target: T3, mouse TLR9 (Mus musculus, UniProt Q9EQU3); experiment: Inhibition of mouse TLR9 in mouse acute challenge model over time (serum IL-12); type: in vivo; details: 5 mg/Kg intra-peritoneal, serum IL-12 two, four and twenty-four hours after agonist
T3 construct: Balb/c mice (Charles River); host or cells: Balb/c mice, in vivo
T3 sequence (Q9EQU3 26-1032): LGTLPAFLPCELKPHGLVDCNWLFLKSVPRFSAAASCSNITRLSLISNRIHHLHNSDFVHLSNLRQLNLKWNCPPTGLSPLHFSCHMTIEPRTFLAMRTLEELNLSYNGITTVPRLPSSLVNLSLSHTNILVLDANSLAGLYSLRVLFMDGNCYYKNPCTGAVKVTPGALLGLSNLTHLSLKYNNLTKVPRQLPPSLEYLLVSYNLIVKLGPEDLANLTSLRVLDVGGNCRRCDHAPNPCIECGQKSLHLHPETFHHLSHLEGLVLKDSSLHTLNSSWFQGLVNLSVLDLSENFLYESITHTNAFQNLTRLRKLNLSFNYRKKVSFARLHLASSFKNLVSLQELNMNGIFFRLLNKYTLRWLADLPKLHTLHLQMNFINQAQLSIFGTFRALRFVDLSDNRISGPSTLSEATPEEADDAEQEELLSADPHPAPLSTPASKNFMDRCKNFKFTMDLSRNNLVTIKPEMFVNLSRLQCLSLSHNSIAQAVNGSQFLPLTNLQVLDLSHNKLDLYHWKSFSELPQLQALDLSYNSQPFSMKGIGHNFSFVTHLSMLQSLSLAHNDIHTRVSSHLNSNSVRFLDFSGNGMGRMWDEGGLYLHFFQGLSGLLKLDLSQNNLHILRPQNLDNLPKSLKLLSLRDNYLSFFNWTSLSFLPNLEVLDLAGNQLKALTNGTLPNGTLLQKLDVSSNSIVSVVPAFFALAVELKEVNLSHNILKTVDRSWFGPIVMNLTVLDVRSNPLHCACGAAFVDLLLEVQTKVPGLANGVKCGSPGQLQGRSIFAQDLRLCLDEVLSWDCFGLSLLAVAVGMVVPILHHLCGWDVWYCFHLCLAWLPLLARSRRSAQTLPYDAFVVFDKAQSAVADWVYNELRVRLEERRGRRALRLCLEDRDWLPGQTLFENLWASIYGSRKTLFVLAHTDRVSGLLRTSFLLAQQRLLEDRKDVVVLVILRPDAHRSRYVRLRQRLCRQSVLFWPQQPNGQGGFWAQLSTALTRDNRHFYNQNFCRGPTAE
Protocol: Example B4-a—Inhibition of Mouse TLR9 in Mouse Acute Challenge Model Over Time
When administered a CpG-containing DNA oligonucleotide, mice respond in an acute manner with release of cytokines into the peripheral blood within 6 hours. The addition of an inhibitor against TLR9 will attenuate the response to the DNA oligonucleotide agonist, which can be measured through a reduction in serum cytokines.
Balb/c mice (Charles River). TLR9 agonist 1018 ISS, CpG-containing DNA oligonucleotide. Mouse interleukin (IL)-12p40 ELISA kit (BD Pharmingen Cat. No. 551219 and 554476).
Mice were injected by the intra-peritoneal dosing route with test compound at 5 mg/kg. Following injection of test compound, mice were injected with a TLR9 agonist (a CpG-containing DNA oligonucleotide) by the intra-peritoneal route to a final dose of approximately 2.5 mg/kg. Two, four and twenty-four hours following administration of the DNA oligonucleotide, blood was collected from mice and processed to serum. The serum was tested for the presence of IL-12 using an ELISA kit. The amount of IL-12 produced is a reflection of the amount of TLR9-dependent receptor activity.

TLR-5 = molecular target: T4, TLR-5 (Homo sapiens, UniProt O60602); experiment: Receptor specificity in primary human leukocytes: TLR-5; type: cell-based
T4 construct: related toll-like receptor family members and other nucleic acid intracellular signaling receptors in primary human leukocytes; endogenous in cells; host or cells: primary human leukocytes
Protocol: as §1, §2

human RIG-I = molecular target: T5, human RIG-I (Homo sapiens, UniProt O95786); experiment: Receptor specificity in primary human leukocytes: RIG-I; type: cell-based
T5 construct: other nucleic acid intracellular signaling receptors in primary human leukocytes; endogenous in cells; host or cells: primary human leukocytes
T5 sequence (O95786 1-925): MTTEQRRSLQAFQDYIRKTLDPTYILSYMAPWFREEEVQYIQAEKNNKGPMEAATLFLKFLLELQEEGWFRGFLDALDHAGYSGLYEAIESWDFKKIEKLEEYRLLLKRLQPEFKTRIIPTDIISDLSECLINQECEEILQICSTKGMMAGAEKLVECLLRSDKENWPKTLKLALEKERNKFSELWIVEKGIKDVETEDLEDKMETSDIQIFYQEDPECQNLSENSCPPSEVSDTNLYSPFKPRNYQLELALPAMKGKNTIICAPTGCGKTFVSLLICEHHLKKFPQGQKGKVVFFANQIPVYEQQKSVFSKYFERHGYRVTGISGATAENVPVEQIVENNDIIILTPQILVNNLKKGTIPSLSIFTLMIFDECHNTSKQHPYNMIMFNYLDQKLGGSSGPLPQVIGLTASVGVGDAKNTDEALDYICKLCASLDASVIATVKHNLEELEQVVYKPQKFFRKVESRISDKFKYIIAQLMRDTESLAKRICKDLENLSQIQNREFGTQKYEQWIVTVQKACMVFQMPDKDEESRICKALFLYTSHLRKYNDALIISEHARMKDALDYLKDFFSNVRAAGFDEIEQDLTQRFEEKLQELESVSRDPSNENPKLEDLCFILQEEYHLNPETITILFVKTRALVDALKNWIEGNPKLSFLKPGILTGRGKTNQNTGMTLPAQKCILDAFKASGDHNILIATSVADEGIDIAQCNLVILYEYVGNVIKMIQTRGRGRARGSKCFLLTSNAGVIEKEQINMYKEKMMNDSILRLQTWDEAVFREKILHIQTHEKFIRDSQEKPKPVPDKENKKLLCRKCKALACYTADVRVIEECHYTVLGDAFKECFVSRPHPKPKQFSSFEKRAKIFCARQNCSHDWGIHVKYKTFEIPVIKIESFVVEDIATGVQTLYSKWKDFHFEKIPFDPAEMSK
Protocol: as §1, §2

T1 sequence (O60603 21-784): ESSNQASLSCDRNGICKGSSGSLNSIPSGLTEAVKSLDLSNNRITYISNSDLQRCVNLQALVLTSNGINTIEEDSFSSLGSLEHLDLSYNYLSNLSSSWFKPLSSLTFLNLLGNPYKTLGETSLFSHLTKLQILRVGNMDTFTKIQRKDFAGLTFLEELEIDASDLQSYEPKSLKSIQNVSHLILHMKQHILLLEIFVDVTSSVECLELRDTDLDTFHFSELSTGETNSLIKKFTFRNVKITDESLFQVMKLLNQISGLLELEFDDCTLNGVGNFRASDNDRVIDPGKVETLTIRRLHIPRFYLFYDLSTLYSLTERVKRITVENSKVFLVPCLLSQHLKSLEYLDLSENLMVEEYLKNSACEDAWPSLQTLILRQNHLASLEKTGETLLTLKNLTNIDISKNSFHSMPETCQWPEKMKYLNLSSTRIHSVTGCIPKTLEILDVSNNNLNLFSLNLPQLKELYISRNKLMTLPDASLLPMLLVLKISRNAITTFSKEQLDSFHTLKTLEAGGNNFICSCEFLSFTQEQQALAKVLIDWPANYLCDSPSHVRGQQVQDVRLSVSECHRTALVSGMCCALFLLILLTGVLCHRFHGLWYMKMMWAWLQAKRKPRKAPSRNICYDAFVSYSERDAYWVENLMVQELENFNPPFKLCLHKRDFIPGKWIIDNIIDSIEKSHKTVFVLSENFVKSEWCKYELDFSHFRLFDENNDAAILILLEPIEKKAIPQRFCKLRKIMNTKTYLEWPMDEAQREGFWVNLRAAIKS
T4 sequence (O60602 21-858): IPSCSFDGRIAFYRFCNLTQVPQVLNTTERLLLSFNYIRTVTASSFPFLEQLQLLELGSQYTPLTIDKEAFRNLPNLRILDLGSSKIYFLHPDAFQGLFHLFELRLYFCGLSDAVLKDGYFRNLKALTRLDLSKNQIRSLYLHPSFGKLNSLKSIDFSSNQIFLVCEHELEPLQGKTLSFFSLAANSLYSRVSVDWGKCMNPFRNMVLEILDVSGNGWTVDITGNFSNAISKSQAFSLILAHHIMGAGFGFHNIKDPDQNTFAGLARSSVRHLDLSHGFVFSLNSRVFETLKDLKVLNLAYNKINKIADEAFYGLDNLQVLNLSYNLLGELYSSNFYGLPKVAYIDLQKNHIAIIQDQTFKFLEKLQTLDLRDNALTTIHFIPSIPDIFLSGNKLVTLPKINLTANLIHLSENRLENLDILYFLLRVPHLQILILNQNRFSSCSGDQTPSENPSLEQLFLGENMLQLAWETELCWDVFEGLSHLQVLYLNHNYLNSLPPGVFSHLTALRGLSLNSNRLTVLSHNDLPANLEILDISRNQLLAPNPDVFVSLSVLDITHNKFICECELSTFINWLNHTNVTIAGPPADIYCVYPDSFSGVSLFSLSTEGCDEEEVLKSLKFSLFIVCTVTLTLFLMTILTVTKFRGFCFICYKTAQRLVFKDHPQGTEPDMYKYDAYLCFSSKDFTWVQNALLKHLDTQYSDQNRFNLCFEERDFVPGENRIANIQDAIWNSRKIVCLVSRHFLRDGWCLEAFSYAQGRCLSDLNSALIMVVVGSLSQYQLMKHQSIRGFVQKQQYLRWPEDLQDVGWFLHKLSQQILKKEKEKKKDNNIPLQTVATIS
T2 sequence (O00206 24-839): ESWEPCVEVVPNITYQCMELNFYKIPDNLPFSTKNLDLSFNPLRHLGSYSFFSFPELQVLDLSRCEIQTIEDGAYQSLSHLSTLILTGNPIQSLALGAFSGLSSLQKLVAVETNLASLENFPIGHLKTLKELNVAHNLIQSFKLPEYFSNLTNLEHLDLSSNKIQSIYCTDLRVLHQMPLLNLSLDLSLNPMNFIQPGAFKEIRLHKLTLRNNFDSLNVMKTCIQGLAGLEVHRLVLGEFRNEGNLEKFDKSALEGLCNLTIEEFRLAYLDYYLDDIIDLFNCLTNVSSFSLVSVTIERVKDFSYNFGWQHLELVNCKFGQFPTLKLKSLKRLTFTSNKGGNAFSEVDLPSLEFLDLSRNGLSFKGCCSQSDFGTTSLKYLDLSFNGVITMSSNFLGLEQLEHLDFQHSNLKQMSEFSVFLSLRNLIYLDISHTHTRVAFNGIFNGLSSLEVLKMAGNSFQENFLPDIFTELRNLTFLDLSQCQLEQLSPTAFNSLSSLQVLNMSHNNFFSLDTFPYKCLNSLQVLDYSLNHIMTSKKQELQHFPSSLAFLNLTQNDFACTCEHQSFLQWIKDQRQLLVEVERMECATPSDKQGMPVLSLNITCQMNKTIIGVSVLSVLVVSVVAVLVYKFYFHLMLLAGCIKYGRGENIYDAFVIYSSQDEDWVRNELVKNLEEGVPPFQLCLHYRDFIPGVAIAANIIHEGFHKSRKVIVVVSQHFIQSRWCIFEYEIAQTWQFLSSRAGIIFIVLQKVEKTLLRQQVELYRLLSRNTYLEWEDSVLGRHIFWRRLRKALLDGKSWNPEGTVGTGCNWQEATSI
T2 sequence (Q9Y6Y9 17-160 limits assumed): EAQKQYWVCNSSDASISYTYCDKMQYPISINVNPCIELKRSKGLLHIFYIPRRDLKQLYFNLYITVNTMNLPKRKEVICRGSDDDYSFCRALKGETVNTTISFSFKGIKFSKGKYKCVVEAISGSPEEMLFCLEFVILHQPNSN

Structure (SMILES) | inhibition at 10 µM (TLR-2) [%] | inhibition at 10 µM (TLR-4) [%] | inhibition of TLR9 activity in mice over time (FIG. 2) (mouse TLR9) | inhibition at 10 µM (TLR-5) [%] | inhibition at 10 µM (human RIG-I; at 10 μM) [%] | IC50 (human RIG-I; read-out: IC50 against RIG-I) [µM]
Cc1ccc(-n2nc3c(N4CCC(C(=O)NCCCN(C)C)CC4)nnc(C)c3c2C)cc1 [Compound No. 5, 1-(3,4-dimethyl-2-(p-tolyl)-2H-pyrazolo[3,4-d]pyridazin-7-yl)-N-(3-(dimethylamino)propyl)piperidine-4-carboxamide] | ≤ 50 | ≤ 50 | inhibition of TLR9 activity | ≤ 50 | ≤ 50 | 
Cc1ccc(-n2nc3c(N4CCC(CCC(=O)NCCN(C)C)CC4)nnc(C)c3c2C)cc1 [Compound No. 9, 3-(1-(3,4-dimethyl-2-(p-tolyl)-2H-pyrazolo[3,4-d]pyridazin-7-yl)piperidin-4-yl)-N-(2-(dimethylamino)ethyl)propanamide] | ≤ 50 | ≤ 50 |  | ≤ 50 |  | 8.3
